Assay results published in article PMC10818931, “In Vitro Evaluation of Drug–Drug Interaction Potential of Epetraborole, a Novel Bacterial Leucyl-tRNA Synthetase Inhibitor” (Pharmaceuticals, 2024).

Key:
in vitro = conditions: human, Caco-2
Procedure: ^14C-EBO permeability in Caco-2 Cells (MDR1/Protein Glycoprotein or P-gp) was determined using methodologies described previously. The apparent permeability of ^14C-EBO was determined in both the apical to basolateral and the basolateral to apical directions, in triplicate, at final concentrations of 1, 10, and 100 μM. Cell monolayers were incubated with ^14C-EBO at 37 °C for 1, 2, 3, and 4 h. The transepithelial electrical resistance (TEER) values of the monolayers prior to and following each experiment were measured to confirm the integrity of the Caco-2 cell monolayers. The apparent permeability of ^14C-EBO (at a final concentration of 10 μM) was determined in both the apical to basolateral and basolateral to apical directions under the same conditions as previously described in the presence of P-gp inhibitors cyclosporine A (10 μM) and verapamil (100 μM) in the donor compartment.

BCRP = target: T1, BCRP (Homo sapiens, UniProt Q9UNQ0); assay: Substrate potential for BCRP, bidirectional permeability in BCRP-MDCK; type: in vitro ADME; conditions: human; BCRP-MDCK; read-out: Efflux ratio of control compound
T1 construct: host or cells: MDCK (BCRP-MDCK)
T1 sequence (Q9UNQ0 1-655): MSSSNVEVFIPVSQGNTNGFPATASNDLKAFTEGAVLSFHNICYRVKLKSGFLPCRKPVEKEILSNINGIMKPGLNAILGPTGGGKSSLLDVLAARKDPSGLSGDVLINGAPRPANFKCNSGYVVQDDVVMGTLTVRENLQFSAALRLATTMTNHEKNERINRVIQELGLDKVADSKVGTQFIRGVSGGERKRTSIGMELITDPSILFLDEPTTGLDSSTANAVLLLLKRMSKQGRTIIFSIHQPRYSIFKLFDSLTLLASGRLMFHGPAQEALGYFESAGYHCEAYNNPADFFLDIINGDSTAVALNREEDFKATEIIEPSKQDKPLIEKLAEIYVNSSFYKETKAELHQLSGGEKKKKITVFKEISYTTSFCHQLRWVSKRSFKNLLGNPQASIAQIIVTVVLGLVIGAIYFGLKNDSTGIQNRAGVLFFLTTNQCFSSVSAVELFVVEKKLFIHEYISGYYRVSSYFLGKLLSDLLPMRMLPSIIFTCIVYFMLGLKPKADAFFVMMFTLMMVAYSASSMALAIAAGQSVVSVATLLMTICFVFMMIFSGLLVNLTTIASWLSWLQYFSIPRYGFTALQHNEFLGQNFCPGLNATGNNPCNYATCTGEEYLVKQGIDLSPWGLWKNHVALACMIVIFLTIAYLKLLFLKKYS

CYP2B6 = assay: CYP mRNA induction in plated human hepatocytes (qPCR); conditions: CYP2B6; for mRNA Induction Fold in Controls PC: phenobarbital 750 µM; for mRNA Induction Fold in Controls NC: flumazenil 25 µM
Procedure: (§1) The induction potential of EBO and M3 on CYP1A2, CYP2B6, and 3A4 was evaluated by incubating the test articles with plated human hepatocytes from 3 individual donors (GKJ, ZEY, WKF) in triplicate according to WuXi AppTec (Cranbury, NJ, USA) SOP.
(§2) At the end of incubation, the RNA of human hepatocytes was isolated and the mRNA expression levels of CYP 1A2, 2B6, and 3A4 were evaluated by using real-time polymerase chain reaction (qPCR) after being reverse-transcribed (RT) to cDNA following manufacturer’s instruction (thermos Fisher Scientific (Waltham, MA, USA). On the last dosing day with EBO or M3, incubation samples were extracted in triplicate by the addition of ice-cold quench solutions at 0, 0.5, 1, 2, 4, 6, and 24 h after dosing and the extracted samples were analyzed using LC-MS/MS to determine the EBO or M3 concentration in each sample.

CYP3A4 = assay: as above; conditions: CYP3A4, flumazenil 25 µM
Procedure: as §1, §2

CYP1A2 = assay: as above; conditions: CYP1A2, flumazenil 25 µM
Procedure: as §1, §2

[1] = donor one, control of EBO experiment
[2] = donor one, control of M3 experiment
[3] = donor three, control of EBO experiment
[4] = donor three, control of M3 experiment
[5] = donor two, control of EBO experiment
[6] = donor two, control of M3 experiment

**Q.** Which Papp (in vitro) does the source give for `OC[C@@H](O)[C@@H](O)[C@H](O)[C@H](O)CO` [mannitol, reference compound] here?
**A.** Its Papp is 0.19 to 0.69 ×10⁻⁶ cm/s.

**Q.** For `Nc1nc(Cl)nc2c1ncn2[C@H]1C[C@H](O)[C@@H](CO)O1` [cladribine, reference compound], which efflux ratio (BCRP) is on record?
**A.** Its efflux ratio is 288.

**Q.** With `CCC1(c2ccccc2)C(=O)NC(=O)NC1=O` [phenobarbital] as the molecule, how does the “mRNA Induction Fold in Controls PC” value (CYP2B6; [1]) read?
**A.** Its value is 7.45 Fold.

**Q.** And the “mRNA Induction Fold in Controls PC” value (CYP2B6; [2])?
**A.** The value was 9.17 Fold.

**Q.** And the “mRNA Induction Fold in Controls PC” value (CYP2B6; [3])?
**A.** Its value is 6.64 Fold.

**Q.** And the “mRNA Induction Fold in Controls PC” value (CYP2B6; [4])?
**A.** Its value is 6.86 Fold.

**Q.** What about the “mRNA Induction Fold in Controls PC” value (CYP2B6; [5]) of the same molecule?
**A.** Its value is 6.88 Fold.

**Q.** And the “mRNA Induction Fold in Controls PC” value (CYP2B6; [6])?
**A.** Its value is 6.29 Fold.

**Q.** Which “mRNA Induction Fold in Controls NC” value (CYP3A4; [1]) does the source give for `CCOC(=O)c1ncn2c1CN(C)C(=O)c1cc(F)ccc1-2` [flumazenil] here?
**A.** The value was 0.89 Fold.

**Q.** And the “mRNA Induction Fold in Controls NC” value (CYP3A4; [2])?
**A.** Its value is 1.06 Fold.

**Q.** And the “mRNA Induction Fold in Controls NC” value (CYP3A4; [3])?
**A.** The value was 0.98 Fold.

**Q.** What about the “mRNA Induction Fold in Controls NC” value (CYP3A4; [4]) of the same molecule?
**A.** The value was 0.87 Fold.

**Q.** What about the “mRNA Induction Fold in Controls NC” value (CYP3A4; [5]) of the same molecule?
**A.** Its value is 0.96 Fold.

**Q.** And the “mRNA Induction Fold in Controls NC” value (CYP3A4; [6])?
**A.** The value was 0.66 Fold.

**Q.** And the “mRNA Induction Fold in Controls NC” value (CYP2B6; [1])?
**A.** Its value is 0.84 Fold.

**Q.** What about the “mRNA Induction Fold in Controls NC” value (CYP2B6; [2]) of the same molecule?
**A.** Its value is 0.91 Fold.

**Q.** What about the “mRNA Induction Fold in Controls NC” value (CYP2B6; [3]) of the same molecule?
**A.** The value was 1.00 Fold.

**Q.** What about the “mRNA Induction Fold in Controls NC” value (CYP2B6; [4]) of the same molecule?
**A.** The value was 0.87 Fold.

**Q.** What about the “mRNA Induction Fold in Controls NC” value (CYP2B6; [5]) of the same molecule?
**A.** Its value is 1.09 Fold.

**Q.** What about the “mRNA Induction Fold in Controls NC” value (CYP2B6; [6]) of the same molecule?
**A.** The value was 0.87 Fold.

**Q.** And the “mRNA Induction Fold in Controls NC” value (CYP1A2; [1])?
**A.** Its value is 0.71 Fold.

**Q.** And the “mRNA Induction Fold in Controls NC” value (CYP1A2; [2])?
**A.** The value was 0.94 Fold.

**Q.** And the “mRNA Induction Fold in Controls NC” value (CYP1A2; [3])?
**A.** Its value is 0.75 Fold.

**Q.** And the “mRNA Induction Fold in Controls NC” value (CYP1A2; [4])?
**A.** Its value is 0.74 Fold.

**Q.** And the “mRNA Induction Fold in Controls NC” value (CYP1A2; [5])?
**A.** The value was 0.94 Fold.

**Q.** What about the “mRNA Induction Fold in Controls NC” value (CYP1A2; [6]) of the same molecule?
**A.** The value was 0.82 Fold.
